Assay: gradient 5% acetonitrile 3 min, to 50% in 2 min, to 85% in 15 min, held 3 min, 100 µL/min
Details: column: Zorbax Extend-C18 2.1 x 50 mm; eluents: water / acetonitrile, 0.1% formic acid
How it was run: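 Values are retention times taken from adduct peaks that software picked and an analyst inspected. The pure standards were run as mixtures of ~100 molecules on HPLC linked to a quadrupole time-of-flight mass spectrometer, in positive and negative ionization mode. A Zorbax Extend-C18 column (2.1 × 50 mm, 1.8 μm) was used at 100 μL/min with water and acetonitrile, each including 0.1% formic acid.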

Row | Compound | RP-LC retention time [s]
1 | O=C(c1cccs1)N1CCC(c2nncn2Cc2ccccc2)CC1 | 673
2 | Cc1cc(NC(=O)CN2C(=O)NC(c3ccc(Cl)cc3)C3=C2COC3=O)ccc1Br (stereo not given) | 873
3 | COc1ccc(-c2c(NC(=O)c3cccs3)n(C)c3ccccc3c2=O)cc1 | 668
4 | COc1ccc(NS(=O)(=O)c2cc3n(c2)CCN(C(C)C)C3=O)cc1Cl | 775
5 | CCCNC(=O)c1nn(-c2ccc(OC)cc2)c(OC)cc1=O | 661
6 | O=C(NCc1ccco1)C(=O)NCC(c1cccnc1)N1CCOCC1 (stereo not given) | 568
7 | O=C(CCn1c(=O)sc2ccccc21)Nc1nc(-c2ccc(Br)cc2)cs1 | 1120
8 | CN1c2ccc(Cl)cc2C(=O)NC12CCN(C(=O)c1cccc(F)c1)CC2 | 808
9 | Cc1c(-c2nnc(C(=O)NCCCN3CCCC3)o2)oc2c(C)cccc12 | 688
10 | CCS(=O)(=O)Nc1ccc2nc(N3CCN(c4ccc(OC)cc4)CC3)cc(C(=O)O)c2c1 | 626
11 | COc1ccc(NC(=O)c2cnc3c(c2)c(=O)n(C)c(=O)n3-c2ccc(F)cc2)cc1 | 856
12 | COc1ccccc1N1CCN(C(=O)CCc2nnc3c4cc(-c5ccccc5)nn4ccn23)CC1 | 763
13 | COc1ccc(Cl)cc1S(=O)(=O)N1CCCC(C(N)=O)C1 (stereo not given) | 689
14 | O=C(Cn1nc2c(Oc3cccc(F)c3)nccn2c1=O)Nc1ccc(F)cc1F | 835
15 | Cc1ccccc1CNC(=O)c1cn(-c2ccc(-c3nc(C(C)(C)C)no3)cn2)cn1 | 1100
16 | CCc1nc(-c2cc(S(=O)(=O)NCC(=O)N3CCOCC3)c(C)s2)no1 | 753
17 | Cc1c(Cl)cccc1NC(=O)Cn1c(C)nc2c(sc3nc(-c4ccccc4)ccc32)c1=O | 1210
18 | O=C(C1CCN(c2nc3ccc(-c4cccc(F)c4)nc3s2)CC1)N1CCCCC1 | 1070
19 | CC1=C(c2ccc(Cl)cc2)S(=O)(=O)N=C1N1CCCN(C(=O)CC(C)C)CC1 | 875
20 | O=C(Cc1csc(Nc2ccc(Cl)cn2)n1)Nc1ccc(OC(F)(F)F)cc1 | 1030
21 | CC(C)n1c(C2CCN(C(=O)Nc3ccc(Cl)cc3F)C2)nc2ccncc21 (stereo not given) | 567
22 | CCOC(=O)c1cn(Cc2cccc(F)c2)c2nc(C)ccc2c1=O | 878

Row | Compound | RP-LC retention time [s]
23 | O=C(NCc1ccc(-c2noc(CCc3ccccc3)n2)s1)C1CC1 | 915
24 | Cc1ccc(NC(=O)C2CCCN2S(=O)(=O)c2cc3c(cc2C)NC(=O)C(C)O3)cc1C (stereo not given) | 842
25 | O=C(Nc1cnc2c(c1)CCC2)C1CCCC1 | 522
26 | O=C(c1ccccc1)N1CCN(c2cc(-c3cccs3)[nH]n2)CC1 | 754
27 | COCc1c(C(=O)O)nnn1-c1ccc(C)cc1F | 722
28 | CCN(CC)CCNC(=O)C1(O)c2cc(Br)ccc2NC(=O)N1c1cccc(OC)c1 (stereo not given) | 590
29 | O=C(c1ccco1)N1CCN(c2ncnc3sc(-c4ccccc4)cc23)CC1 | 840
30 | O=C(NC1CCCCC1)C1CCN(C(=O)c2ncn3c2COC(c2ccc(F)cc2)C3)CC1 (stereo not given) | 784
31 | COc1cc([C@@H]2c3cc4c(cc3[C@H](O)[C@@H](CO)[C@@H]2C(=O)NCCCN(C)C2CCCCC2)OCO4)cc(OC)c1OC | 573
32 | CN(CCNC(=O)C1CCCN(c2ncnc3c2nc2n3CCCCC2)C1)Cc1ccccc1 (stereo not given) | 623
33 | O=c1c2ccccc2c(-c2nc(-c3ccncc3)no2)cn1-c1ccc(Cl)cc1 | 1140
34 | Cc1cc(C)cc(NC(=O)c2cnc(-c3ccccc3)nc2-c2ccncc2)c1 | 988
35 | Cc1ccc(-c2nc(C3CC(=O)N(c4ccc(F)cc4)C3)no2)c(C)c1 (stereo not given) | 1120
36 | O=C1CC(c2noc(-c3ccc(-c4ccccc4)cc3)n2)CN1c1ccc(F)cc1 (stereo not given) | 1200
37 | O=C(c1cc2ccccc2o1)N1CCC(CNS(=O)(=O)C2CC2)CC1 | 712
38 | Cc1nccn1Cc1noc(-c2ccc(Cl)cc2)n1 | 638
39 | CSc1ncccc1C(=O)NCC(O)c1ccsc1 (stereo not given) | 626
40 | CCCN1C(=O)c2cc(S(=O)(=O)NCc3ccco3)ccc2Oc2cccnc21 | 952
41 | COc1cc(CN2CCC3(CCC(CN4CCOCC4)O3)CC2)ccc1OCC(C)C (stereo not given) | 598
42 | Cn1cnc(S(=O)(=O)NCCc2noc(-c3ccccc3)n2)c1 | 703
43 | Nc1cc(-c2cccc(F)c2)[nH]n1 | 608
44 | COc1ccc(-c2csc(NC(=O)CCn3c(=O)sc4ccccc43)n2)cc1 | 982

Row | Compound | RP-LC retention time [s]
45 | COc1ccccc1Oc1ccc(S(=O)(=O)Nc2cccc(C(C)=O)c2)cc1 | 887
46 | O=C(CCC1CCCC1)NC1(c2nc(-c3cccnc3)no2)CCCCC1 | 1020
47 | O=C(NCCCN1CCCC1)C1c2ccccc2CC(=O)N1Cc1ccccc1 (stereo not given) | 604
48 | CCc1ccc(S(=O)(=O)N2C[C@@H](F)C[C@H]2C(=O)N2CCOCC2)cc1 | 745
49 | Cc1cc(NC(=O)c2cc3c(=O)n4cccc(C)c4nc3s2)no1 | 792
50 | O=C(Cn1cc(C(=O)C(=O)N2CCOCC2)c2ccccc21)NCc1ccc2c(c1)OCCCO2 | 704
51 | CC(C)n1c(=O)oc2cc(-c3noc(-c4cccc(Cl)c4)n3)ccc21 | 1180
52 | Cc1ccc(N2C(=O)CN(CCc3cccs3)[C@H]3CS(=O)(=O)C[C@H]32)cc1C | 865
53 | Cc1ccccc1Oc1nccn2c(=O)n(CC(=O)Nc3ccccc3F)nc12 | 853
54 | CCc1nn2c(CNS(=O)(=O)c3ccc(F)c(C)c3)c(-c3ccccc3)nc2s1 | 974
55 | CCc1ccc(C(=O)NC2CCN(c3cc(-c4cccs4)[nH]n3)C2)cc1 (stereo not given) | 730
56 | CCc1cccc(NC(=O)C2CCCN(C(=O)C3Sc4ccccc4NC3=O)C2)c1 (stereo not given) | 818
57 | Cc1sc(-c2cc(C(F)(F)F)[nH]n2)cc1S(=O)(=O)NCCc1cccs1 | 990
58 | Cc1ccc2c(c1)C1CC(C)(O2)N(c2cccc(C(=O)O)c2)C(=O)N1 (stereo not given) | 912
59 | CCCn1c(=O)c(C)nc2cc(-c3noc(-c4ccc(F)c(F)c4)n3)ccc21 | 1230
60 | COc1cc(OC)cc(-c2noc(-c3cn(C)c4ccc(C)cc4c3=O)n2)c1 | 894
61 | Cc1ccc(-n2c(=O)n(C)c(=O)c3cc(C(=O)Nc4ccccc4C(N)=O)cnc32)cc1 | 857
62 | COc1cccc(NS(=O)(=O)c2ccc3c(c2)C(=O)N(C)c2ncccc2O3)c1 | 889
63 | O=C(NCC1CCCO1)c1ccc(-c2cnc(Oc3ccc(F)cc3)nc2)cc1 (stereo not given) | 793
64 | Cc1cccc(-c2nc3nc(C)cc(N(CCO)CCO)n3n2)c1 | 615
65 | COc1ccc(Nc2c(C(=O)N3CCCCCC3)cnc3nc(C)ccc23)cc1 | 638
